# Laboratory results from patent US10774053B2, “HIV protease inhibitors” (Gilead Sciences, Inc., priority 2017, dated 2020).
# Test system: HIV-1 (IIIB) in MT-4 cells
# Assay: microbe, parasite or virus in culture
# Format: cell-based
# Details: Human immunodeficiency virus 1, IIIB, MT4, MT-4 cells, HIV-1; read-out: MT4 EC50
row,SMILES,EC50
1,CC(C)(C)C[C@]1(c2ccc(-c3cnn(C4CC4)n3)cc2F)NC(=N)N([C@H](COC(=O)NC2(C(F)(F)F)CC2)c2ccc(Cl)c(-c3ncnn3C(F)F)c2)C1=O [Compound 143],0.00959 µM
2,[H]/N=C1\N[C@](CC(C)(C)C)(c2ccc(-c3cnn(C(F)F)c3)cc2)C(=O)N1[C@H](COC(=O)NC1CC1)c1ccc(Cl)c(-c2c[nH]cn2)c1 [Compound 30],0.12 µM
3,Cn1ccc(-c2ccc([C@@]3(CC(C)(C)C)NC(=N)N([C@H](COC(=O)NC4(C(F)(F)F)CC4)c4ccc(Cl)c(-n5ncnc5C(F)F)c4)C3=O)cc2)n1 [Compound 206],0.00674 µM
4,CC(C)(C)C[C@]1(c2ccc(-c3cnn(CC(F)F)n3)cc2F)NC(=N)N([C@H](COC(=O)NC2(C(F)(F)F)CC2)c2ccc(Cl)c(-c3ncnn3C(F)F)c2)C1=O [Compound 151],0.00755 µM
5,CC(C)(C)C[C@]1(c2ccc(-c3ncccn3)cc2F)NC(=N)N([C@H](COC(=O)NC(C)(C)C(F)(F)F)c2ccc(Cl)c(-n3ncnc3C(F)F)c2)C1=O [Compound 198],0.0115 µM
6,CC(C)(C)C[C@]1(c2ccc(-c3cnn(C(F)F)c3)c(F)c2)NC(=N)N([C@H](COC(=O)N[C@H]2CC2(F)F)c2ccc(Cl)c(-n3ncnc3C(F)F)c2)C1=O [Compound 340],0.00667 µM
7,CC(C)(C)C[C@]1(c2ccc(-c3cnn(C(F)F)c3)cc2)NC(=N)N([C@H](COC(=O)N[C@@H]2C[C@@H]2F)c2ccc(Cl)c(-n3ncnc3C(F)F)c2)C1=O [Compound 287],0.00755 µM
8,CC(C)(C)C[C@]1(c2ccc(-c3cnn(C4CC4)n3)cc2)NC(=N)N([C@H](CNC(=O)C2CC2)c2ccc(Cl)c(-n3ncnc3C(F)F)c2)C1=O [Compound 381],0.0248 µM
9,CC(C)(C)C[C@]1(c2ccc(-c3cnc4ccccn34)cc2)NC(=N)N([C@H](COC(=O)NC2(C(F)(F)F)CC2)c2ccc(Cl)c(-c3ncnn3C(F)F)c2)C1=O [Compound 121],0.021 µM
10,COc1ccc([C@@]2(CC(C)(C)C)NC(=N)N([C@H](COC(=O)N(C)C)c3ccc(Cl)c(-c4ncccc4C)c3)C2=O)c(F)c1 [Compound 1],0.0646 µM
11,CC(C)(C)C[C@]1(c2ccc(-c3cnn(C(F)F)c3)cc2)NC(=N)N([C@H](COC(=O)N(CC(F)F)C2CC2)c2ccc(Cl)c(-n3cncn3)c2)C1=O [Compound 376],0.012 µM
12,Cc1ncoc1-c1cccc([C@@H](COC(=O)NC(C)C)N2C(=N)N[C@](CC(C)C)(c3ccccc3)C2=O)c1 [Compound 7],57.1 µM
13,CC(C)(C)C[C@]1(c2ccc(-c3cnn(C(F)F)c3)cc2)NC(=N)N([C@H](COC(=O)NC23CC(C(F)(F)F)(C2)C3)c2ccc(Cl)c(-n3cncn3)c2)C1=O [Compound 248],0.0703 µM
14,CC(C)(C)C[C@]1(c2cc(F)cc(F)c2)NC(=N)N([C@H](COC(=O)NC2(C)CC2)c2ccc(Cl)c(-n3cccn3)c2)C1=O [Compound 257],4.18 µM
15,CC(C)(C)C[C@]1(c2ccc(-c3cnn(C4CC4)c3)cc2)NC(=N)N([C@H](COC(=O)NCC(F)(F)F)c2ccc(Cl)c(-n3ncnc3C(F)F)c2)C1=O [Compound 221],0.0155 µM
16,CC(C)(C)C[C@]1(c2ccc(-c3cnn(C(F)F)c3)cc2)NC(=N)N([C@H](COC(=O)N2CC(C)(C)C2)c2ccc(Cl)c(-c3ncn[nH]3)c2)C1=O [Compound 75],0.0305 µM
17,CCC1(NC(=O)OC[C@H](c2ccc(Cl)c(-n3cccn3)c2)N2C(=N)N[C@](CC(C)(C)C)(c3ccc(-c4cnn(C(F)F)c4)cc3)C2=O)CC1 [Compound 259],0.0654 µM
18,CC(C)(C)C[C@]1(c2ccc(-c3ccc(F)cn3)cc2)NC(=N)N([C@H](COC(=O)NC2(C(F)(F)F)CC2)c2ccc(Cl)c(-n3ncnc3C(F)F)c2)C1=O [Compound 274],0.0111 µM
19,CC(C)(C)C[C@]1(c2ccc(-c3ccn(C(F)F)n3)cc2F)NC(=N)N([C@H](COC(=O)NC2(C(F)(F)F)CC2)c2ccc(Cl)c(-n3ncnc3C(F)F)c2)C1=O [Compound 285],0.0168 µM
20,CC(C)(C)C[C@]1(c2ccc(-c3cnn(C(F)F)c3)cc2)NC(=N)N([C@H](COC(=O)NC(C)(C)C(F)(F)F)c2ccc(Cl)c(-c3ncn[nH]3)c2)C1=O [Compound 45],0.0317 µM
21,CC(C)(C)C[C@]1(c2ccc(-c3cnn(C(F)F)c3)cc2)NC(=N)N([C@H](COC(=O)Nc2ccccn2)c2ccc(Cl)c(-c3ncn[nH]3)c2)C1=O [Compound 108],0.0858 µM
22,CC(C)(C)C[C@]1(c2ccc(-c3cnn(C(F)F)c3)cc2)NC(=N)N([C@H](COC(=O)NC2(C)CC2)c2cccc(-n3ncnc3C(F)F)c2)C1=O [Compound 375],0.0308 µM
23,CC(C)(C)C[C@]1(c2ccc(-c3cnn(C4CC4)n3)cc2)NC(=N)N([C@H](CNC(=O)C2(C)CC2)c2ccc(Cl)c(-n3ncnc3C(F)F)c2)C1=O [Compound 382],0.0365 µM

row,SMILES,EC50
1,CC(C)(F)C[C@]1(c2ccc(-c3cnn(C(F)F)c3)cc2)NC(=N)N([C@H](COC(=O)N2CC(F)(F)C2)c2ccc(Cl)c(-c3ncn[nH]3)c2)C1=O [Compound 101],0.0659 µM
2,CC(C)(C)C[C@]1(c2ccc(-c3ccc(C#N)cc3)cc2)NC(=N)N([C@H](COC(=O)NC2(C(F)(F)F)CC2)c2ccc(Cl)c(-n3ncnc3C(F)F)c2)C1=O [Compound 281],0.0222 µM
3,CC(C)(C)C[C@]1(c2ccc(-c3ccccn3)cc2F)NC(=N)N([C@H](COC(=O)NC2(C(F)(F)F)CC2)c2ccc(Cl)c(-n3ncnc3C(F)F)c2)C1=O [Compound 196],0.0127 µM
4,Cc1cc(-c2ccc([C@@]3(CC(C)(C)C)NC(=N)N([C@H](COC(=O)NC4(C(F)(F)F)CC4)c4ccc(Cl)c(-n5ncnc5C(F)F)c4)C3=O)cc2)on1 [Compound 216],0.00974 µM
5,CC(C)(C)C[C@]1(c2ccc(-c3ccccn3)cc2)NC(=N)N([C@H](COC(=O)NC2(C(F)(F)F)CC2)c2ccc(Cl)c(-c3ncn[nH]3)c2)C1=O [Compound 60],0.0285 µM
6,CC(C)(C[C@]1(c2ccc(-c3cnn(C4CC4)n3)cc2)NC(=N)N([C@H](COC(=O)NC2(C(F)(F)F)CC2)c2ccc(Cl)c(-c3ncnn3C(F)F)c2)C1=O)C1CC1 [Compound 149],0.0119 µM
7,CC(C)(C)C[C@]1(c2ccc(-c3cnc(C#N)nc3)cc2)NC(=N)N([C@H](COC(=O)NC2(C(F)(F)F)CC2)c2ccc(Cl)c(-c3ncnn3C(F)F)c2)C1=O [Compound 118],0.0164 µM
8,CC(C)(C)C[C@]1(c2ccc(-c3cnn(C(F)F)c3)cc2)NC(=N)N([C@H](COC(=O)N2CC(F)(F)C2)c2ccc(Cl)c(-c3ncn[nH]3)c2)C1=O [Compound 67],0.0208 µM
9,CC(C)(C)C[C@]1(c2ccc(-c3cnn(C4CC4)c3)cc2)NC(=N)N([C@H](COC(=O)N2CC(F)(F)C2)c2ccc(Cl)c(-c3ncn[nH]3)c2)C1=O [Compound 77],0.0389 µM
10,CC(C)(C)C[C@]1(c2ccc(-c3cnn(C(F)F)c3)cc2)NC(=N)N([C@H](COC(=O)NC(C)(C)C)c2ccc(Cl)c(-c3ncn[nH]3)c2)C1=O [Compound 68],0.0216 µM
11,CC(C)(C)C[C@]1(c2ccc(-c3cnn(S(C)(=O)=O)c3)c(F)c2)NC(=N)N([C@H](COC(=O)NCC(F)(F)F)c2ccc(Cl)c(-n3ncnc3C(F)F)c2)C1=O [Compound 300],0.0125 µM
12,CC(C)(C)C[C@]1(c2ccc(-c3cncs3)cc2F)NC(=N)N([C@H](COC(=O)NC2(C(F)(F)F)CC2)c2ccc(Cl)c(-n3ncnc3C(F)F)c2)C1=O [Compound 199],0.0076 µM
13,"CC(C)(C)C[C@]1(c2ccc(-c3cnn(C(F)F)c3)cc2)NC(=N)N([C@H](COC(=O)N[C@@H]2CC2(F)F)c2ccc(Cl)c(-n3ncnc3C(F)F)c2)C1=O (single isomer, unassigned) [Compound 334]",0.00898 µM
14,CC(C)(C)C[C@]1(c2ccc(-c3ccccn3)cc2F)NC(=N)N([C@H](COC(=O)NC2(C(F)(F)F)CC2)c2ccc(Cl)c(-c3ncn[nH]3)c2)C1=O [Compound 116],0.0426 µM
15,CC(C)(C)C[C@]1(c2ccc(-c3cnn(C4COC4)c3)cc2)NC(=N)N([C@H](COC(=O)NC(C)(C)C)c2ccc(Cl)c(-c3ncn[nH]3)c2)C1=O [Compound 106],0.101 µM
16,CC(C)(C)C[C@]1(c2ccc(-c3cnn(C(F)F)c3)cc2)NC(=N)N([C@H](COC(=O)N(CC(F)F)C2CC2)c2ccc(Cl)c(-c3ncn[nH]3)c2)C1=O [Compound 80],0.0288 µM
17,"[H]/N=C1\N[C@](CC(C)(C)C)(c2ccc(-c3cnn(C(F)F)c3)cc2)C(=O)N1[C@H](COC(=O)NC1CC1)c1ccc(Cl)c(-c2nccc(OC)n2)c1 [Compound 15, (S)-2-(4-chloro-3-(4-methoxypyrimidin-2-yl)phenyl)-2-((R)-4-(4-(1-(difluoromethyl)-1H-pyrazol-4-yl)phenyl)-2-imino-4-neopentyl-5-oxoimidazolidin-1-yl)ethyl cyclopropylcarbamate]",0.23 µM
18,CC1CCN1C(=O)OC[C@H](c1ccc(Cl)c(-c2ncn[nH]2)c1)N1C(=N)N[C@](CC(C)(C)C)(c2ccc(-c3cnn(C(F)F)c3)cc2)C1=O (stereo partly drawn) [Compound 88],0.0243 µM
19,Cc1ncsc1-c1ccc([C@@]2(CC(C)(C)C)NC(=N)N([C@H](COC(=O)NC3(C(F)(F)F)CC3)c3ccc(Cl)c(-n4ncnc4C(F)F)c3)C2=O)c(F)c1 [Compound 200],0.0262 µM
20,CC(C)(C)C[C@]1(c2ccc(-c3cnn(C(F)F)c3)cc2)NC(=N)N([C@H](COC(=O)NC2CC2)c2ccc(Cl)c(-n3cncn3)c2)C1=O [Compound 235],0.00961 µM
21,[2H]C([2H])([2H])n1cnc(-c2cc([C@@H](COC(=O)NC(C)(C)C(F)F)N3C(=N)N[C@](CC4(C)CC4)(c4ccc(-c5cnn(C(F)F)c5)cc4)C3=O)ccc2Cl)n1 [Compound 98],0.052 µM
22,CC(C)(C)C[C@]1(c2ccc(-c3cnn(C(F)F)c3)cc2)NC(=N)N([C@H](COC(=O)N2CC(F)(F)C2)c2ccc(Cl)c(-n3cncn3)c2)C1=O [Compound 240],0.00506 µM

# Same assay, conditions: MT-4 cells, HIV-1; read-out: MT4 EC50
row,SMILES,EC50
1,CC(C)(C)C[C@H]1C(=O)N([C@H](COC(=O)NC(C)(C)C(F)F)c2ccc(F)c(-c3ncnn3C(F)F)c2)C(=N)N1c1ccc(-c2cnn(C(F)F)c2)cc1 [Compound 124],0.0653 µM
2,CC(C)(C)C[C@]1(c2ccc(-c3ccnn3C(F)F)cc2)NC(=N)N([C@H](COC(=O)NC2(C(F)(F)F)CC2)c2ccc(Cl)c(-n3ncnc3C(F)F)c2)C1=O [Compound 213],0.0255 µM
3,CC(C)(C)C[C@]1(c2ccc(-c3cn(C4CC4)nn3)cc2)NC(=N)N([C@H](COC(=O)NC2(C(F)(F)F)CC2)c2ccc(Cl)c(-n3ncnc3C(F)F)c2)C1=O [Compound 232],0.0182 µM
